How the values were obtained:
RBL-2H3 = test: Antihistaminic activity in rat RBL2H3 cells assessed as inhibition of DNP-BSA-induced beta-hexosaminidase release preincubated for 10 mins before DNP-BSA challenge; format: functional, cell-based
[1] = Cytotoxicity against rat RBL2H3 cells at 500 uM by optical microscope; format: cell-based; conditions: rbl-2h3, 500 µM

Row | Structure (SMILES) | IC50 (RBL-2H3) [µM] | Activity [1]
1 | O=c1cc(-c2cc([N+](=O)[O-])cc([N+](=O)[O-])c2)oc2cc(O)cc(O)c12 | > 500 | Non-toxic
2 | COc1cc(OC)cc(-c2cc(=O)c3c(O)cc(O)cc3o2)c1 | > 500 | Non-toxic
3 | COc1cc(-c2cc(=O)c3c(O)cc(O)cc3o2)cc(OC)c1OC | 424 | Non-toxic
4 | COc1ccc(-c2cc(=O)c3c(O)cc(O)cc3o2)cc1OC | > 500 | Non-toxic
5 | COc1ccc(-c2cc(=O)c3ccccc3o2)cc1OC [3',4'-DIMETHOXYFLAVONE] | > 500 | Non-toxic
6 | COc1cc(OC)cc(-c2cc(=O)c3ccccc3o2)c1 [3',5'-DIMETHOXYFLAVONE] | > 500 | Non-toxic
7 | O=c1cc(-c2ccccc2)oc2cc(O)cc(O)c12 [CHRYSIN] | > 500 | Non-toxic
8 | O=C(O)c1cc(=O)c2c(OCC(O)COc3cccc4oc(C(=O)O)cc(=O)c34)cccc2o1 [CROMOLYN SODIUM] | 1540 | 
9 | O=c1cc(-c2ccc(O)c(O)c2)oc2cc(O)cc(O)c12 [LUTEOLIN] | 58.2 | Non-toxic
10 | COc1c(OC)c(O)c2c(=O)cc(-c3ccc(O)c(O)c3)oc2c1OC [SIDERITIFLAVONE] | > 500 | Non-toxic
11 | COc1ccc(-c2cc(=O)c3c(OC)c(OC)c(OC)c(OC)c3o2)cc1 [TANGERETIN] | > 500 | Non-toxic
12 | COc1cc(-c2cc(=O)c3c(O)cc(O)cc3o2)cc(OC)c1O [TRICIN] | 4.83 | Non-toxic

The remaining compounds from weak to strong by IC50 (RBL-2H3), led by results:

Row | IC50 (RBL-2H3) [µM] | Structure (SMILES) | Activity [1]
13 | 212 | COc1cc(-c2oc3cc(O)cc(O)c3c(=O)c2C(C)=O)cc(OC)c1O | Non-toxic
14 | 203 | COc1c(OC)c(OC)c2c(=O)cc(-c3ccc(O)c(O)c3)oc2c1OC | Non-toxic
15 | 179 | O=c1cc(-c2ccccc2)oc2cc(O)c(O)c(O)c12 [BAICALEIN] | Non-toxic
16 | 161 | COc1cc2oc(-c3ccc(O)cc3)cc(=O)c2c(O)c1OC [CIRSIMARITIN] | Non-toxic
17 | 124 | O=c1cc(-c2ccc(O)cc2)oc2cc(O)cc(O)c12 [APIGENIN] | Non-toxic
18 | 97.5 | COc1cc(-c2cc(=O)c3ccccc3o2)cc(OC)c1O | Non-toxic
19 | 67.2 | O=c1cc(-c2ccc(O)cc2)oc2cc(O)c(O)c(O)c12 [SCUTELLAREIN] | Non-toxic

Source: ChEMBL document CHEMBL1147225, “Tricin from a malagasy connaraceous plant with potent antihistaminic activity” (J Nat Prod, 2003)
